From patent publication US11203587B2, “Thyroid hormone receptor beta agonist compounds” (Terns, Inc., priority 2018, dated 2021)
pEC50: −log10 of the molar value.

How the values were obtained:
THR beta-LBD = molecular target: T1, THR beta-LBD (Homo sapiens, UniProt P10828); assay: LanthaScreen TR-FRET Thyroid Receptor beta Coactivator Assay; format: biochemical; conditions: for THRβ-Selectivity: THR beta over THR alpha, derived from T3-selectivity normalized data; for pEC50: TR-FRET coactivator assay, 2 hours incubation at room temperature, run in duplicate multiple times, average data, read-out: EC50 THRβ-FRET
T1 construct: THR alpha-LBD (0.4 nM final concentration) or THR beta-LBD (1.0 nM final concentration) was added; purchased ThermoFisher
T1 sequence (P10828 217-461 limits assumed): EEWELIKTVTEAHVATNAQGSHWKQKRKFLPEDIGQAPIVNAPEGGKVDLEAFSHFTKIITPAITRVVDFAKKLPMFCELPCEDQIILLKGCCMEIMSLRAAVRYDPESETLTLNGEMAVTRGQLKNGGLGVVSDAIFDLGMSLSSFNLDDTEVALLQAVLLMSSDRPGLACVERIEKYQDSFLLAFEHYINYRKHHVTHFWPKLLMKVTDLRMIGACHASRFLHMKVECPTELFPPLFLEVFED
Description: LanthaScreen™ TR-FRET Thyroid Receptor alpha Coactivator Assay kit (ThermoFisher) and LanthaScreen™ TR-FRET Thyroid Receptor beta Coactivator Assay kit (ThermoFisher) were used for agonist compound screening. […] Buffer C (ThermoFisher) was added to each well before the 4× mixture of fluorescein-SCR2-2 coactivator (200 nM final concentration), Terbium-labeled anti-GST antibody (2 nM final concentration), and THR alpha-LBD (0.4 nM final concentration) or THR beta-LBD (1.0 nM final concentration) was added.

THR alpha-LBD = molecular target: T2, THR alpha-LBD (Homo sapiens, UniProt P10827); assay: LanthaScreen TR-FRET Thyroid Receptor alpha Coactivator Assay; format: biochemical; conditions: 2 hours incubation at room temperature, run in duplicate multiple times, average data, read-out: EC50 THRα-FRET
T2 construct: THR alpha-LBD (0.4 nM final concentration) or THR beta-LBD (1.0 nM final concentration) was added; purchased ThermoFisher
Description: Example B1: Time-Resolved Fluorescence Resonance Energy Transfer (TR-FRET) Assay for Thyroid Hormone Receptor Agonist Screening
LanthaScreen™ TR-FRET Thyroid Receptor alpha Coactivator Assay kit (ThermoFisher) and LanthaScreen™ TR-FRET Thyroid Receptor beta Coactivator Assay kit (ThermoFisher) were used for agonist compound screening. Compounds in DMSO were diluted using ECHO Liquid Handler (Labcyte Inc.) into 384 plates in 10-point 3-fold series in duplicate (5 micro M final top concentration). Buffer C (ThermoFisher) was added to each well before the 4× mixture of fluorescein-SCR2-2 coactivator (200 nM final concentration), Terbium-labeled anti-GST antibody (2 nM final concentration), and THR alpha-LBD (0.4 nM final concentration) or THR beta-LBD (1.0 nM final concentration) was added. After 2 hours incubation at room temperature in the dark, the TR-FRET signal was measured on an EnVision plate reader (PerkinElmer) with excitation at 340 nm and dual emission readout at 495 and 520 nm with the delay time of 100 micro second and the integration time of 200 micro second. The ratio of emission signal at 520 and at 495 was used to calculate EC50 using GraphPad Prism (GraphPad Software). […] Compounds' THR-beta selectivity values in Table 2 are derived from T3-selectivity normalized data.

T2 sequence (P10827 163-410 isoform P10827-2 limits assumed, other chains not shown): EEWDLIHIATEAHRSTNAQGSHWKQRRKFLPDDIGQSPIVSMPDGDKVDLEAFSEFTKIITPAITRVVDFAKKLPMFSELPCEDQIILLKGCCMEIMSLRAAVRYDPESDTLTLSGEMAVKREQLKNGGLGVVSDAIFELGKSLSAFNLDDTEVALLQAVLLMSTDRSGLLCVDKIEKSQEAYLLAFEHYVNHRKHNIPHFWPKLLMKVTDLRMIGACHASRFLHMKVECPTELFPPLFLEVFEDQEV

Compound | THRβ-Selectivity (THR beta-LBD) | pEC50 (THR beta-LBD) | pEC50 (THR alpha-LBD) | THRβ-Selectivity (THR beta-LBD; listed as 33 P1)
CCC(CC)c1cc(Oc2c(Cl)cc(-c3nn(C)c(=O)[nH]c3=O)cc2Cl)n[nH]c1=O [Compound 27, 6-(3,5-dichloro-4-((6-oxo-5-(pentan-3-yl)-1,6-dihydropyridazin-3-yl)oxy)phenyl)-2-methyl-1,2,4-triazine-3,5(2H,4H)-dione] | 33.9 | 6.67 | 5.76 | –
CC(C)c1cc(Cc2c(Cl)cc(-c3n[nH]c(=O)[nH]c3=O)cc2Cl)n[nH]c1=O [Compound 15, 6-(3,5-dichloro-4-((5-isopropyl-6-oxo-1,6-dihydropyridazin-3-yl)methyl)phenyl)-1,2,4-triazine-3,5(2H,4H)-dione] | 31.2 | 6.42 | 5.48 | –
CC[C@@H](C)c1cc(Oc2c(Cl)cc(-c3n[nH]c(=O)[nH]c3=O)cc2Cl)n[nH]c1=O (single isomer, unassigned) [Compound 33 P1] | – | 6.16 | 5.61 | 11.3
CCC(O)c1cc(Oc2c(Cl)cc(-c3nn(C)c(=O)[nH]c3=O)cc2Cl)n[nH]c1=O (stereo not drawn) [Compound 30, 6-(3,5-dichloro-4-((5-(1-hydroxypropyl)-6-oxo-1,6-dihydropyridazin-3-yl)oxy)phenyl)-2-methyl-1,2,4-triazine-3,5(2H,4H)-dione] | 24.7 | 6.67 | 5.88 | –
CC(C)c1cc(Oc2c(Cl)cc(-c3nn(CC(F)F)c(=O)[nH]c3=O)cc2Cl)nn(C)c1=O [Compound 24, 6-(3,5-dichloro-4-((5-isopropyl-1-methyl-6-oxo-1,6-dihydropyridazin-3-yl)oxy)phenyl)-2-(2,2-difluoroethyl)-1,2,4-triazine-3,5(2H,4H)-dione] | 4.7 | 5.92 | 5.83 | –
CCn1nc(-c2cc(Cl)c(Oc3cc(C(C)C)c(=O)[nH]n3)c(Cl)c2)c(=O)[nH]c1=O [Compound 19, 6-(3,5-dichloro-4-((5-isopropyl-6-oxo-1,6-dihydropyridazin-3-yl)oxy)phenyl)-2-ethyl-1,2,4-triazine-3,5(2H,4H)-dione] | 13.9 | 5.85 | < 5.30 | –
CC(C)c1cc(Oc2c(Cl)cc(-c3nn(CC(F)F)c(=O)[nH]c3=O)cc2Cl)n[nH]c1=O [Compound 23, 6-(3,5-dichloro-4-((5-isopropyl-6-oxo-1,6-dihydropyridazin-3-yl)oxy)phenyl)-2-(2,2-difluoroethyl)-1,2,4-triazine-3,5(2H,4H)-dione] | 9.2 | 5.86 | 5.49 | –

These reach a higher pEC50 (THR beta-LBD). Values come first.

THRβ-Selectivity (THR beta-LBD) | pEC50 (THR beta-LBD) | pEC50 (THR alpha-LBD) | THRβ-Selectivity (THR beta-LBD; listed as 33 P1) | Compound
28.3 | 6.79 | 5.92 | – | CC(C)c1cc(Cc2c(Cl)cc(-c3nn(C)c(=O)[nH]c3=O)cc2Cl)n[nH]c1=O [Compound 16, 6-(3,5-dichloro-4-((5-isopropyl-6-oxo-1,6-dihydropyridazin-3-yl)methyl)phenyl)-2-methyl-1,2,4-triazine-3,5(2H,4H)-dione]
27.7 | 6.85 | 6.17 | – | CC(C)c1cc(Oc2c(Cl)cc(-c3n[nH]c(=O)[nH]c3=O)cc2Cl)n[nH]c1=O [Compound 2, 6-(3,5-dichloro-4-((5-isopropyl-6-oxo-1,6-dihydropyridazin-3-yl)oxy)phenyl)-1,2,4-triazine-3,5(2H,4H)-dione]
25.5 | 7.62 | 6.79 | – | CC(C)c1cc(Oc2c(Cl)cc(-c3nn(C)c(=O)[nH]c3=O)cc2Cl)nn(C)c1=O [Compound 9, 6-(3,5-dichloro-4-((5-isopropyl-1-methyl-6-oxo-1,6-dihydropyridazin-3-yl)oxy)phenyl)-2-methyl-1,2,4-triazine-3,5(2H,4H)-dione]
17 | 7.61 | 7.10 | – | CC(C)c1cc(Oc2c(Cl)cc(-c3n[nH]c(=O)[nH]c3=O)cc2Cl)nn(C)c1=O [Compound 1, 6-(3,5-dichloro-4-((5-isopropyl-1-methyl-6-oxo-1,6-dihydropyridazin-3-yl)oxy)phenyl)-1,2,4-triazine-3,5(2H,4H)-dione]
